Measurements reported in US20070161691A1, “Modified-protein formation inhibitor” (TOKAI UNIVERSITY, priority 2003, published 2007).

Assays:
[1] = test system: middle cerebral artery ischemia-reperfusion model; experiment: Cerebroprotective action in middle cerebral artery ischemia-reperfusion model; format: in vivo, rat; details: after reperfusion 22 hrs
[2] = test system: middle cerebral artery ischemia-reperfusion model; experiment: as above; format: in vivo, rat
Method: CD(SD)IGS male rats (Japan Charles River Kabushiki […], Hino farm, room No. 22, specific product) (8 rats per one group) having body weight 270 to 350 g were anesthetized by 2% isoflurane (mixed bas comprising of 70% N2O (laughter gas) and 30% O2) to immobilize, and then the rats were put on warming plate to keep the rectal and brain temperature 37 to 38° C. After that, to observe the stability in the examination, canula which was made by polyethylene (PE-50, Becton Dickinson) was inserted and left in caudal artery of said animal, and this made blood drawing and blood pressure determining to monitor the biochemical parameter such as blood sugar level, hematocrit, CO2 concentration, oxygen partial pressure, pH, blood pressure and etc. In addition, cerebral blood flow in cortex was determined by laser doppler […] (Neuroscience.inc: OMEGA FLOW (FLO-C1)), putting the detection site directly on cranium on the point left 4 mm from bregma. Left neck of such animal was incised, and from internal and external carotid fork of common carotid artery to upstream of internal carotid, nylon surgical thread (length 16 mm, diameter 0.2 to 0.3 mm, with silicon coating on its tip 3 mm) was passed and left, middle cerebral artery was obstructed for 2 hours. After that, the thread was removed to release the middle cerebral artery, and blood was reperfused for 21 hours. To each animals, 3.0 mg/kg of 3-methyl-1-phenyl 2-pyrazolin-5-one (control, hereinafter referring to edaravone) and 4.23 mg/kg of 4-(5-phenyltetrazol-1-ylmethyl)-morpholine (compound 1) (test compound, hereinafter referring to TM-3001) were respectively administered twice by cannula which is left in caudal artery 5 minutes and 5 hours after middle cerebral artery occlusion. After said operation, the brain was removed from said animal, and after preparing 7 brain slices with 2 mm thickness, to TTC stain (0.8 g of 2,3,5-triphenyltetrazolium chloride (Sigma) dissolved in 40 ml of saline) were soaked at 37° C. for 15 minutes to stain, and fixed by 10% neutral formalin liquid to prepare specimen. Such specimens were created the image by CCD camera respectively, and analysed according to method of Swanson et al. (J Cereb Blood Flow Metab 10:290-293; […]). […] Furthermore, function recovering was estimated before and after the operation by rotor rod test that estimates how much they can walk on rotating rotor.

[3] = comparing to diluent single administration

With `CC1=NN(c2ccccc2)C(=O)C1` [Edaravone, 3-methyl-1-phenyl 2-pyrazolin-5-one, reference compound] the “Nervous condition estimation test, Ave (Bederson grade)” value (“Nervous condition estimation test, Ave” below) [1] was 1.5, the “Nervous condition estimation test, Ave” value ([2]; after occlusion 10 min) was 2.8 and the “Nervous condition estimation test, Ave” value ([2]; after occlusion 2 hrs) was 2.7. The “Nervous condition estimation test, Ave” value ([2]; after reperfusion 10 min) was 2.2, the “Nervous condition estimation test, Ave” value ([2]; after reperfusion 3 hrs) was 2.1 and the “Nervous condition estimation test, Ave” value ([2]; after reperfusion 4 hrs) was 2.0. The “rotor rod test, Ave (count from rotor rod machine)” value ([2]; before occlusion) was 197.0, the “improvement for nervous condition” value [2, 3] was “remarkably shown” and the “recovering the function, rotor rod test” value [2, 3] was “remarkably shown”. The cerebral infarction nest ([2]; comparing to diluent single administration, dosed 5 minutes and 5 hours after occlusion) was “significantly reduced”, the “rotor rod test, Ave (count from rotor rod machine)” value ([2]; reperfusion) was 153.1 and the “rotor rod test, ratio to before occlusion (%), Ave” value ([2]; reperfusion vs before occlusion) was 160.4%.
